Series [1] in a line: Binding affinity to EBOV glycoprotein assessed as dissociation constant by SPR analysis. On the set-up: species or system Ebolavirus.
In series [2] the test system is Ebolavirus. The series can be described thus: Antiviral activity against pseudotyped EBOV Mayinga infected in human A549 cells assessed as inhibition of viral growth at 3 uM measured after 3 hrs. The format is functional, organism-based.
Series [3] deals with Marburgvirus. The series can be described thus: Antiviral activity against pseudotyped Marburgvirus Angola infected in human A549 cells assessed as inhibition of viral growth at 10 uM entry measured after 2 hrs. Type of series: functional, organism-based.
Series [4] relates to Ebolavirus. The series can be described thus: Antiviral activity against pseudotyped EBOV Mayinga infected in human A549 cells assessed as inhibition of Pseudoviral entry incubated for 40 hrs. Type of series: functional, organism-based. The conditions noted are these: Orthoebolavirus, A549, 40 h.
Series [5] in a line: Selectivity index, ratio of CC50 for cytotoxicity against human A549 cells to EC50 for antiviral activity against pseudotyped EBOV Mayinga infected in human A549 cells assessed as inhibition of Pseudoviral entry. The conditions noted are these: read-out: Ratio CC50/EC50. The format is toxicity, cell-based.
Series [6] deals with Marburgvirus. The series can be described thus: Antiviral activity against pseudotyped Marburgvirus Angola infected in human A549 cells assessed as inhibition of Pseudoviral entry incubated for 40 hrs. The conditions noted are these: Orthomarburgvirus, A549, 40 h. Type of series: functional, organism-based.
Series [7] is described as follows: Selectivity index, ratio of CC50 for cytotoxicity against human A549 cells to EC50 for antiviral activity against pseudotyped Marburgvirus Angola infected in human A549 cells assessed as inhibition of Pseudoviral entry. The conditions noted are these: read-out: Ratio CC50/EC50. The format is toxicity, cell-based.
The subject of series [8] is Sudan ebolavirus. The series can be described thus: Antiviral activity against pseudotyped Sudan ebolavirus Gulu infected in human A549 cells assessed as inhibition of viral growth. Type of series: functional, organism-based.
The next series deals with Bundibugyo virus. The series can be described thus: Antiviral activity against pseudotyped Bundibugyo virus infected in human A549 cells assessed as inhibition of viral growth. Type of series: functional, organism-based.
The next series has as its system Tai Forest ebolavirus. The series can be described thus: Antiviral activity against pseudotyped Tai Forest ebolavirus infected in human A549 cells assessed as inhibition of viral growth. The format is functional, organism-based.
The subject of a further series is A549. The series can be described thus: Cytotoxicity against human A549 cells assessed as as reduction in cell viability incubated for 48 hrs by celltiter-glo assay. The format is functional. A general note: ATP-based viability assays read luminescence as a measure of living cells.
Series [9] concerns Ebolavirus. The series can be described thus: Antiviral activity against EBOV Mayinga infected in human HeLa cells assessed as inhibition of viral replication incubated for 40 hrs. The settings on record: Orthoebolavirus. The format is functional, organism-based.
Series [10] has as its system Sudan ebolavirus. The series can be described thus: Antiviral activity against pseudotyped Sudan ebolavirus Gulu infected in human HeLa cells assessed as inhibition of viral replication. Type of series: functional, organism-based.
Series [11] concerns Marburgvirus. The series can be described thus: Antiviral activity against Marburgvirus Angola infected in human Huh-7 cells assessed as inhibition of viral replication. Type of series: functional, organism-based. The settings on record: Orthomarburgvirus.
The nature of series [12]: Stability in human plasma measured after 60 mins. Type of series: ADME, cell-free. The settings on record: read-out: Stability.
Series [13] can be described thus: Stability in mouse plasma measured after 60 mins. Type of series: ADME, cell-free. The conditions noted are these: read-out: Stability.
The next series concerns the target CYP2C9 (Homo sapiens, UniProt P11712). The series can be described thus: Inhibition of CYP2C9 in human liver microsomes using tolbutamide as substrate at 10 uM preincubated with compound for 5 mins followed by NADPH addition and measured after 20 mins by LC-MS/MS analysis relative to control. The format is ADME, Microsome. The settings on record: probe tolbutamide, time 25 min. In general terms: Liver microsomes are vesicles of endoplasmic reticulum, rich in cytochrome P450 enzymes.

The target in the next series is CYP2D6 (Homo sapiens, UniProt P10635). The series can be described thus: Inhibition of CYP2D6 in human liver microsomes using dextromethorphan as substrate at 10 uM preincubated with compound for 5 mins followed by NADPH addition and measured after 20 mins by LC-MS/MS analysis relative to control. Type of series: ADME, Microsome. The conditions noted are these: probe dextromethorphan, time 25 min.

For series [14], the system named is Ebolavirus. The series can be described thus: Antiviral activity against pseudotyped EBOV 1976 Zaire Mayinga assessed as inhibition of viral growth. The conditions noted are these: Orthoebolavirus. The format is functional, organism-based.
Series [15] has as its system Marburgvirus. The series can be described thus: Antiviral activity against pseudotyped Marburgvirus 2005 Lake Victoria Angola assessed as inhibition of viral growth. The format is functional, organism-based. The settings on record: Orthomarburgvirus.
The subject of series [16] is Ebolavirus. The series can be described thus: Antiviral activity against infectious EBOV 1976 Zaire Mayinga assessed as inhibition of viral growth. The format is functional, organism-based. The settings on record: Orthoebolavirus.
A short description of series [17]: Metabolic stability in human microsome measured at 60 min. The settings on record: microsomes, read-out: Stability. The format is ADME.

Calls of active or inactive are those of the source. No cut-off for these calls is given here.

CYP2C9, sequence (P11712 whole entry): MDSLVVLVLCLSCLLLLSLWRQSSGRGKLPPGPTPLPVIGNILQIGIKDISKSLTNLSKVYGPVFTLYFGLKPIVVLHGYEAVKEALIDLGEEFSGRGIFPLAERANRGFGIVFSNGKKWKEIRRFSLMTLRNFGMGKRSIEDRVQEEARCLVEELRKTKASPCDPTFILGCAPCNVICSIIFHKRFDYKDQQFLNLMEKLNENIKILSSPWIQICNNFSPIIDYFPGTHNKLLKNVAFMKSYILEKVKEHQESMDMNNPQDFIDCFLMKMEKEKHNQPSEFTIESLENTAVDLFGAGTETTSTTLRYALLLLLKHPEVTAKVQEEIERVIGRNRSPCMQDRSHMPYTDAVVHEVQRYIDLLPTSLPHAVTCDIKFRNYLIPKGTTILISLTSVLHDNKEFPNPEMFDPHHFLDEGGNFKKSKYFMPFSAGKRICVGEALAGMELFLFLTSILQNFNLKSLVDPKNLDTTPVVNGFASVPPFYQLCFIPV
CYP2D6, sequence (P10635 whole entry): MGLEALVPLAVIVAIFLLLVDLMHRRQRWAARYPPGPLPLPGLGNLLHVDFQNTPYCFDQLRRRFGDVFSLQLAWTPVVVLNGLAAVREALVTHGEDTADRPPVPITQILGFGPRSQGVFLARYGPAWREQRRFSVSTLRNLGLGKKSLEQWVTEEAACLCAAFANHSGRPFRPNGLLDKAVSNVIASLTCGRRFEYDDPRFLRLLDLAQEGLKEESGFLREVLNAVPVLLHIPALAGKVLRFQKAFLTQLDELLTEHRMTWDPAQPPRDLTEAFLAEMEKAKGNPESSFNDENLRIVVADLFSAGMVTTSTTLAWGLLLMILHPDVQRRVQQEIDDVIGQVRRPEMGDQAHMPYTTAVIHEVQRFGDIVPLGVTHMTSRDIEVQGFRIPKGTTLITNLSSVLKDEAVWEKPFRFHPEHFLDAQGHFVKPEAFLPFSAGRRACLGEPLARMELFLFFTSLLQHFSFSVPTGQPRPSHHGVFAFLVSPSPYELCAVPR

For the compound `CN(C)CCOc1ccc(/C(=C(/CCCl)c2ccccc2)c2ccccc2)cc1` [TOREMIFENE], the Kd (in general, a measure of binding affinity in units of concentration) in series [1] is 18.9 µM. Also, the outcome in the series with Ebolavirus [2] and with Marburgvirus [3] was inactive.

Consider `CN(C)C1CCN(C(=O)c2cc3sccc3n2Cc2ccc(Cl)cc2)CC1`, for which the EC50 (usually the concentration that produces a half-maximal response) turned out to be 0.899 µM in the series on Ebolavirus [4]; 3.7 µM in the series on Marburgvirus [6]; 1.01 µM with Sudan ebolavirus [8]; 1.9 µM in the series with Bundibugyo virus; 4.14 µM with Tai Forest ebolavirus. For the same compound, the selectivity ratio stood at 61 in series [5] and 15 in [7].

`CN(C)C1CCN(C(=O)c2cc3ccccc3n2Cc2ccc(Cl)cc2)CC1`: the EC50 was 1.38 µM in the series on Ebolavirus [4], 6.83 µM with Marburgvirus [6], 0.884 µM with Sudan ebolavirus [8] and 4.95 µM in the series with Tai Forest ebolavirus. Moreover, the selectivity ratio in [5] was 44; in series [7], under 1.

`CC1CCN(c2ccc(NC(=O)c3cc4occc4n3Cc3ccc(Cl)cc3)cc2C(F)(F)F)CC1`: the EC50 was determined as 4.03 µM with Ebolavirus [4] and 13.6 µM in the series with Marburgvirus [6]. The selectivity ratio in series [5] amounted to 25; in [7], 7.4. In addition, in the series on A549, the CC50 (in general, the concentration at which the toxic effect on the cells reaches its halfway point) is over 100 µM.

Consider `O=C(Nc1ccc(N2CCC(F)(F)CC2)cc1)c1cc2occc2n1Cc1ccc(Cl)cc1`, for which the 50% effective concentration (EC50) with Ebolavirus [4] was 11.7 µM; in the series with Marburgvirus [6], over 100 µM; in the series with Sudan ebolavirus [8] it was 2.39 µM; in the series on Bundibugyo virus, 36.4 µM; with Tai Forest ebolavirus, over 100 µM. The selectivity ratio in series [5] came out at 8.6; in series [7], 1. Further, the CC50 with A549 is over 100 µM.

In the case of `O=C(Nc1ccc(N2CCOCC2)cc1)c1cc2occc2n1Cc1ccc(Cl)cc1`, the EC50 in the series with Ebolavirus [4] and in the series with Marburgvirus [6] was over 100 µM throughout. Moreover, the selectivity ratio in series [5] and in series [7] was 1 throughout. For the same compound, the CC50 in the series with A549 was over 100 µM.

For the compound `CN(C)C1CCN(C(=O)c2cc3occc3n2Cc2ccc(Cl)cc2)CC1`, the EC50 with Ebolavirus [4] amounted to 1.05 µM; with Marburgvirus [6], 11.5 µM; with Sudan ebolavirus [8], 0.641 µM; in the series with Bundibugyo virus, 1.99 µM; with Tai Forest ebolavirus, 5.6 µM; in the series with Ebolavirus [9] it was 6.21 µM. Moreover, the values for the EC50 with Sudan ebolavirus [10] and with Marburgvirus [11] were 0.5 µM and 7.96 µM, respectively. Moreover, the selectivity ratio in series [5] is 58; in series [7], 5.3. In addition, the remaining at 1 h in series [12] and in series [13] was 100% in each case.

`CCOc1ncc(NC(=O)c2cc3occc3n2Cc2ccc(Cl)cc2)cc1F`: the EC50 in the series with Ebolavirus [4] was 2.43 µM; with Marburgvirus [6], over 100 µM. Also, the figures for the selectivity ratio in series [5] and in series [7] were 41 and 1, respectively. Also, in the series with A549, the 50% cytotoxic concentration (CC50) was over 100 µM.

As for `CN(C)C1CCN(C(=O)c2cc3ccccc3n2CC2CCCCC2)CC1`, the EC50 in the series with Ebolavirus [4] came to 0.295 µM; in the series with Marburgvirus [6], 3.34 µM; with Ebolavirus [9], 0.391 µM; in the series with Sudan ebolavirus [10], 0.652 µM; in the series on Marburgvirus [11], 1.32 µM. For the same compound, the values for the selectivity ratio in series [5] and in series [7] were 170 and 15, respectively. Besides, the result in the series with Ebolavirus [2] and in the series with Marburgvirus [3] was inactive. Besides, the remaining at 1 h in series [12] and in series [13] was 100% each time. The inhibition – broadly, the relative decrease from the control value, in per cent – at 20 min, 10 µM came to 4.82% on CYP2C9 and 19.1% on CYP2D6.

In the case of `COc1ccc(Cn2c(C(=O)N3CCC(N(C)C)CC3)cc3ccccc32)cc1`, the EC50 in the series with Ebolavirus [4] was 0.543 µM; with Marburgvirus [6], 7.84 µM; with Sudan ebolavirus [8] it was 1.23 µM; with Bundibugyo virus, 1.39 µM; in the series on Tai Forest ebolavirus, 5.28 µM; with Ebolavirus [9], 0.854 µM. In addition, the EC50 was about 20 µM in the series with Sudan ebolavirus [10] and 4.29 µM in the series on Marburgvirus [11]. For the same compound, in series [7], the selectivity ratio was found to be 13. For the same compound, in the series with A549, the CC50 was about 100 µM.

Consider `CN(C)C1CCN(C(=O)c2cc3ccccc3n2Cc2ccccc2)CC1`, for which the EC50 with Ebolavirus [4] came to 0.55 µM; in the series with Marburgvirus [6] it was 9.53 µM. Besides, the selectivity ratio in series [5] is about 180; in [7], 9.6. Further, in the series with A549, the CC50 was about 100 µM. In addition, the remaining at 1 h in series [12] and in [13] was 100% each time.

`CN(C)CCNC(=O)c1cc2ccccc2n1Cc1ccc(Cl)cc1`: the EC50 with Ebolavirus [4] turned out to be 3.49 µM; in the series on Marburgvirus [6], 3.92 µM; with Sudan ebolavirus [8], 0.834 µM; in the series with Bundibugyo virus, 2.66 µM; in the series on Tai Forest ebolavirus, 3.74 µM. Further, the selectivity ratio in [5] worked out at 8.4; in series [7], 7.5.

As to `CN(C)C1CCN(C(=O)c2cc3ccccc3n2Cc2ccc(F)cc2)CC1`, the EC50 in the series with Ebolavirus [4] is 0.453 µM; in the series with Marburgvirus [6], 4.99 µM; in the series on Sudan ebolavirus [8], 0.554 µM; with Bundibugyo virus, 0.353 µM; in the series on Tai Forest ebolavirus, 2.7 µM; with Ebolavirus [9], over 20 µM. For the same compound, the EC50 with Sudan ebolavirus [10] is 1.01 µM; in the series on Marburgvirus [11] it was over 20 µM. Besides, the selectivity ratio amounted to 100 in series [5] and 13 in series [7].

On to `CN(C)CCNC(=O)c1cc2occc2n1Cc1ccc(Cl)cc1`, for which the 50% effective concentration (EC50) is 1.26 µM in the series on Ebolavirus [14]; 7.7 µM with Marburgvirus [15]; 5.2 µM in the series on Ebolavirus [16]; 1.26 µM in the series on Ebolavirus [4]; 6.47 µM in the series with Marburgvirus [6]; 1.04 µM with Sudan ebolavirus [8]. Besides, the EC50 in the series with Bundibugyo virus turned out to be 1.95 µM; with Tai Forest ebolavirus, 4.3 µM; in the series with Ebolavirus [9], 2.43 µM; in the series with Sudan ebolavirus [10], 3.29 µM; in the series on Marburgvirus [11] it was 6.69 µM. The selectivity ratio amounted to 50 in [5] and 9.8 in series [7]. For the same compound, the remaining at 1 h in series [12] and in series [13] was 100% throughout.

With `CN(C)CCNC(=O)c1cc2occc2n1Cc1ccc(Cl)c(C(F)(F)F)c1`, the EC50 in the series on Ebolavirus [4] stood at 1.9 µM; in the series with Marburgvirus [6], 3.16 µM. Moreover, the selectivity ratio in [5] worked out at 17; in series [7], 10.

Regarding `CN(C)C1CCN(C(=O)c2cc3ccccc3n2Cc2cccnc2)CC1`, the half-maximal effective concentration (EC50) in the series with Ebolavirus [4] came out at 5.3 µM; in the series with Marburgvirus [6], 38.6 µM. Further, the selectivity ratio in series [5] is over 19; in series [7] it was 2.6.

Consider `CN(C)CC1CN(C(=O)c2cc3occc3n2Cc2ccc(Cl)cc2)C1`, for which the 50% effective concentration (EC50) with Ebolavirus [4] was found to be 1.23 µM; with Marburgvirus [6] it was 4.57 µM. The selectivity ratio in series [5] worked out at 46; in [7], 12.

With `CN(C)C1CCN(C(=O)c2cn(Cc3ccccc3)c3ccccc23)CC1`, the concentration for a half-maximal effect (EC50) in the series on Ebolavirus [4] was determined as 2.84 µM; in the series with Marburgvirus [6] it was 14.6 µM. In addition, in series [7], the selectivity ratio is 6.9. Moreover, the results for the remaining at 1 h in series [17], in [12] and in series [13] were 95.7%, 100% and 100%, respectively.

As for `CN(C)C1CCN(C(=O)c2cc3occc3n2Cc2cccc(C(F)(F)F)c2)CC1`, the values for the EC50 with Ebolavirus [4] and in the series with Marburgvirus [6] were 1.5 µM and 9.72 µM, respectively. Also, the selectivity ratio in series [5] is 67; in series [7], 10. Moreover, in the series with A549, the half-maximal cytotoxic concentration (CC50) was about 100 µM.

Regarding `OCCOc1ccc(/C(=C(/CCCl)c2ccccc2)c2ccccc2)cc1` [OSPEMIFENE], the Kd in series [1] stood at 19.8 µM.
